Data taken from ChEMBL document CHEMBL1201862, “PubChem BioAssay data set” (2004).
Activity calls are given as the source filed them.

Assays:
[1] = molecular target: Delta-type opioid receptor (Homo sapiens, UniProt P41143); experiment: Counterscreen for agonists of heterodimerization of the mu 1 (OPRM1) and delta 1 (OPRD1) opioid receptors: Luminescence-based cell-based high throughput dose response assay to identify agonists of OPRD1 homodimerization. [Related pubchem assays (depositor defined):AID504326, AID504355, AID504692, AID504904, AID504905]; assay type: functional
Delta-type opioid receptor, sequence (P41143 whole entry): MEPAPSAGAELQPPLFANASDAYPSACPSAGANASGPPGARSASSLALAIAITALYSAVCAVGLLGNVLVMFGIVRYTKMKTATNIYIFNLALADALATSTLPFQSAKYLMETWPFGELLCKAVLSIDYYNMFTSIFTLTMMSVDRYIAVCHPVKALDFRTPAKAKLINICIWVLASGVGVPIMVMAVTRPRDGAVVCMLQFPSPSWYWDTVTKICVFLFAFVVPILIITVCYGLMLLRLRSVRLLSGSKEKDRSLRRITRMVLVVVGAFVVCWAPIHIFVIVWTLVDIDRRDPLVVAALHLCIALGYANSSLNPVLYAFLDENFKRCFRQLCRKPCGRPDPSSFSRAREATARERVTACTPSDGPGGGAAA

Vero = experiment: mammalian cell viability reduction – secondary assay, cytotoxicity control for West Nile virus antiviral project, dose response (AID 1650); assay type: functional; details: Chlorocebus sabaeus
INS1 = experiment: INS-1E survival protection against cytokine death – cell-based, luminescence, retest, dose response (AID 449756); assay type: functional; details: Rattus norvegicus;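 further: cell death triggered by IL-1 beta plus TNF-alpha plus IFN-gamma mixture; protective hits raise ATP signal compared with cytokine alone wells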
[2] = molecular target: 5-hydroxytryptamine receptor 5A (Homo sapiens, UniProt P47898); experiment: Counterscreen for agonists of OPRM1-OPRD1 heterodimerization: luminescence-based cell-based high throughput dose response assay to identify agonists of 5-hydroxytryptamine (serotonin) 5A receptor (HTR5A). [Related pubchem assays (depositor defined):AID504326, AID504355, AID504692, AID504904, AID504905]; assay type: functional
5-hydroxytryptamine receptor 5A, sequence (P47898 whole entry): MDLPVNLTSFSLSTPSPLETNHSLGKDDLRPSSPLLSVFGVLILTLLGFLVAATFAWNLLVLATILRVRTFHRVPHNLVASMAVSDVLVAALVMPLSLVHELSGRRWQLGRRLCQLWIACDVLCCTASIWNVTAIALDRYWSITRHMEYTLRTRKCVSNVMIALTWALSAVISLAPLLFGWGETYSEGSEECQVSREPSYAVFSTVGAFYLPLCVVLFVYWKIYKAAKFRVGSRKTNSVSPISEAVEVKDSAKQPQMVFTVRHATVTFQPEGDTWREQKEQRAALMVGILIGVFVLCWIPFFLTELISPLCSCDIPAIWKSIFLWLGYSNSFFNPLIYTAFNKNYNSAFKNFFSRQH

Mu-type opioid receptor = Mu-type opioid receptor (Homo sapiens, UniProt P35372); experiment: Counterscreen for agonists of heterodimerization of the mu 1 (OPRM1) and delta 1 (OPRD1) opioid receptors: Luminescence-based cell-based high throughput dose response assay to identify agonists of OPRM1 homodimerization.; assay type: functional;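 further: U2OS cells expressing OPRM1 and beta-arrestin as split beta-galactosidase partners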
Mu-type opioid receptor, sequence (P35372 whole entry): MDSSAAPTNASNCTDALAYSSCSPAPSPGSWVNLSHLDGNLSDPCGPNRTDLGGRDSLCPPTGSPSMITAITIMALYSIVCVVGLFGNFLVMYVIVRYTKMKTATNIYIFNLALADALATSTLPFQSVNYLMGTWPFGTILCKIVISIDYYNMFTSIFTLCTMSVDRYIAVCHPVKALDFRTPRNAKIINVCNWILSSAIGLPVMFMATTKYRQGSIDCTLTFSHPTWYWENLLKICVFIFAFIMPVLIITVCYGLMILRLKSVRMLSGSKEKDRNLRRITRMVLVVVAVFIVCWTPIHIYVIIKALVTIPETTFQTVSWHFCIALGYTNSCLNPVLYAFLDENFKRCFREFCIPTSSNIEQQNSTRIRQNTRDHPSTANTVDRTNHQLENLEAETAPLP

[3] = cytotoxicity toward MDA-MB-231 breast cancer cells – cell-based, CellTiter-Glo luminescence, cherry-pick, cytotoxicity control for RAD54 inhibitor project, dose response (AID 651692); assay type: functional
[4] = molecular target: T1, DNA repair protein RAD52 homolog (Homo sapiens, UniProt P43351); assay type: functional, biochemical
T1 sequence (P43351 whole entry): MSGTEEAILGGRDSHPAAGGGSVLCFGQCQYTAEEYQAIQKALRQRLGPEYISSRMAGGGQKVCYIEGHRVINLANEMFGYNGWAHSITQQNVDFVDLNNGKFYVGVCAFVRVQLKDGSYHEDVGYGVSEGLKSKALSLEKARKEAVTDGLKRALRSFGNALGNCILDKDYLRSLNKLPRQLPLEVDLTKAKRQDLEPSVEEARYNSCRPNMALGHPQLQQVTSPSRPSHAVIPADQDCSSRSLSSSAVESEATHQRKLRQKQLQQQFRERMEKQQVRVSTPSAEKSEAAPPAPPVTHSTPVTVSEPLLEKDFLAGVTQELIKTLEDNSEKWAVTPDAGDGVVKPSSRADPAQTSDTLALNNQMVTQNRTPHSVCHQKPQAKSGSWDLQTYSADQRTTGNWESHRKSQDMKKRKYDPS

[5] = molecular target: DNA repair and recombination protein RAD54-like (Homo sapiens, UniProt Q92698); experiment: RAD54 Holliday junction migration blockers – biochemical, fluorescence, cherry-picked samples, dose series, confirmation (AID 651657); assay type: functional
[6] = bead-based luminescence quenchers, dual-tagged ARNT – biochemical, AlphaScreen, cherry-pick, artefact control for ARNT-TACC3 interaction inhibitor project, dose response (AID 651705); assay type: functional;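 further: AlphaScreen bead proximity signal that flags compounds interfering with the detection technology; potency reflects signal decrease which marks the compound as an assay artifact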
[7] = microbe, parasite or virus in culture; assay type: functional; details: Mycobacterium tuberculosis
H9c2 = experiment: cells; assay type: functional, cell-based; details: Rattus norvegicus, H9c2, Myocardium;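 further: confirmatory concentration-response retest of ultra-high-throughput screening hits for modulation of myocardial damage; cell death induced by hydrogen peroxide oxidative stress; compound pretreatment for 60 min then peroxide exposure for 2 h; potency is for protecting the cells against peroxide damage rather than for killing them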
Protein RecA = molecular target: T2, Protein RecA (Mycobacterium tuberculosis, UniProt P9WHJ3); experiment: Fluorescence Cell-Free Homogeneous Dose Retest to Identify Inhibitors of RecA-Intein Splicing Activity. [Related pubchem assays (depositor defined):AID2097, AID2223, AID489010, AID492950]; assay type: functional
T2 sequence (P9WHJ3 whole entry): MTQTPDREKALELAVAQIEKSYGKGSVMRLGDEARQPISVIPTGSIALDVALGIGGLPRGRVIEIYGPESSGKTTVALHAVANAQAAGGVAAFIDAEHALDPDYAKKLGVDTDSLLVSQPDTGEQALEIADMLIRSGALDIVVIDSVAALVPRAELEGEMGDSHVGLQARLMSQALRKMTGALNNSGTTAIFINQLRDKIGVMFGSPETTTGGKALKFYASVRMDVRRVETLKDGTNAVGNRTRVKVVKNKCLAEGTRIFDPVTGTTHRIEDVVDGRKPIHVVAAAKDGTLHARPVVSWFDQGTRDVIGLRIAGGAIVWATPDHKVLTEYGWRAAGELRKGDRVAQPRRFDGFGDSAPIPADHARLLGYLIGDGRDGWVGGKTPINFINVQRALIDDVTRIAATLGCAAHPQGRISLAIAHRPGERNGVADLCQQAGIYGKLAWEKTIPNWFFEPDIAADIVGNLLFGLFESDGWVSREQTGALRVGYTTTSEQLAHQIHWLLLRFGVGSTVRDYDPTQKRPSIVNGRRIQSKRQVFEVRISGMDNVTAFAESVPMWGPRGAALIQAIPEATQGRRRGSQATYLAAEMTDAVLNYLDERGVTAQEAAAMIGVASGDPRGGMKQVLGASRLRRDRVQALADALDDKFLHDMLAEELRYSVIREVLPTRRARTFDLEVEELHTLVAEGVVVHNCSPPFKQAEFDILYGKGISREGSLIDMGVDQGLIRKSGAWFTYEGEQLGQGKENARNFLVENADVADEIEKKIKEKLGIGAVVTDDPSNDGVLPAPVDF

[8] = viability loss in THP-1 monocytes – THP-1 cells, cytotoxicity control for Vif-APOBEC3G degradation inhibitor project, dose response (AID 1117359); assay type: functional; details: THP-1
[9] = NIH3T3 cell viability loss – ATP luminescence, mouse fibroblasts, counter-screen, dose response (AID 2010); assay type: functional, cell-based;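 further: cells exposed to compound for about 90 hours before reading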
[10] = Trypanosoma cruzi growth suppression in host cells – NIH3T3 host cells, beta-gal luminescence, confirmation (AID 2044); assay type: functional, cell-based;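 further: intracellular parasites grown in NIH/3T3 mouse fibroblasts as host cells; luminescent beta-galactosidase reporter signal from transgenic T. cruzi replicating inside host cells; inhibitors lower the luminescence signal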
[11] = molecular target: T3, Replicative DNA helicase DnaB (Mycobacterium tuberculosis, UniProt P9WMR3); experiment: DnaB intein splicing inhibitors, dose response, biochemical, cell-free fluorescence (AID 449749); assay type: functional
T3 sequence (P9WMR3 whole entry): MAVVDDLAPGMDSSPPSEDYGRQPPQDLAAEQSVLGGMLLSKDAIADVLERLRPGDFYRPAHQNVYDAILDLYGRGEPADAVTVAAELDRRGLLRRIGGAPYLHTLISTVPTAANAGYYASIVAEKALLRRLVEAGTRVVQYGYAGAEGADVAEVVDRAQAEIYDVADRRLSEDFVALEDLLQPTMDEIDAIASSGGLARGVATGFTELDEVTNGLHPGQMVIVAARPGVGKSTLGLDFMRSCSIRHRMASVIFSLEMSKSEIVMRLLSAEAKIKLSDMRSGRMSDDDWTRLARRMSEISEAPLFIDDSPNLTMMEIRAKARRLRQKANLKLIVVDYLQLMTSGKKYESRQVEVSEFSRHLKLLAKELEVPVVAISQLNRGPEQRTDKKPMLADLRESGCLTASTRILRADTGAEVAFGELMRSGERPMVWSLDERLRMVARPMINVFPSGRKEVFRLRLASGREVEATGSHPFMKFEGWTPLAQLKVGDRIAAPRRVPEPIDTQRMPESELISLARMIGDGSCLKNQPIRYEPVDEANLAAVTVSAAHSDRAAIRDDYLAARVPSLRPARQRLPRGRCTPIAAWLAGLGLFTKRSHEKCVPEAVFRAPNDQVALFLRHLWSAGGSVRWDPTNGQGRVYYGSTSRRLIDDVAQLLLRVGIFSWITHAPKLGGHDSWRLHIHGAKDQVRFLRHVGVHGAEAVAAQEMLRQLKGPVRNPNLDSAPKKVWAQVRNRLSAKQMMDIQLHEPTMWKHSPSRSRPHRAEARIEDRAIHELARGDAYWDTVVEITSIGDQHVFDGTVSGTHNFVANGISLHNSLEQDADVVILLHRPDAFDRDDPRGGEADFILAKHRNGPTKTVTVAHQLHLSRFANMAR

Large T antigen = Large T antigen (Simian virus 40, UniProt P03070); assay type: functional, Betapolyomavirus macacae;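 further: Confirmatory-stage PubChem screen for compounds that inhibit SV40 T antigen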
Large T antigen, sequence (P03070 whole entry): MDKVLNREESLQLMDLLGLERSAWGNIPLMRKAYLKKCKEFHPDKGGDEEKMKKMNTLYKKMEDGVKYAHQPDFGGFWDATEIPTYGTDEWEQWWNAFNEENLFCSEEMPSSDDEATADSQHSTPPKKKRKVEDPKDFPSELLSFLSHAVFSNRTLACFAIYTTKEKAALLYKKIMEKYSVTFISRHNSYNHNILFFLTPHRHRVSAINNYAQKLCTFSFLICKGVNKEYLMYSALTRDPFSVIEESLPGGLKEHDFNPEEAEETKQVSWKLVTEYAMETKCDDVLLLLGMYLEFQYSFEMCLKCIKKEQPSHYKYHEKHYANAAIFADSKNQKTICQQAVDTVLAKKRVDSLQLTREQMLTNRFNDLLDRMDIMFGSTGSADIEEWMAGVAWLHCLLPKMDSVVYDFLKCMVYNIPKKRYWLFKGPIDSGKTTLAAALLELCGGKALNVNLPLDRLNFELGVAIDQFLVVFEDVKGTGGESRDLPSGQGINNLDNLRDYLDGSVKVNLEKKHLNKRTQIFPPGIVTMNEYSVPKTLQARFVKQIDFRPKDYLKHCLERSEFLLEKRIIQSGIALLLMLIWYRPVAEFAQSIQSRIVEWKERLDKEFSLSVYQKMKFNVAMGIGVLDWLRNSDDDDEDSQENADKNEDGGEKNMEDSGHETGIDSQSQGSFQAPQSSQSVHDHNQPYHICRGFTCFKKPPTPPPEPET

Nonstructural protein 1 = Nonstructural protein 1 (Influenza A virus, UniProt Q194T2); assay type: functional, Influenza A virus (A/California/07/2009(H1N1))
Nonstructural protein 1, sequence (Q194T2 whole entry): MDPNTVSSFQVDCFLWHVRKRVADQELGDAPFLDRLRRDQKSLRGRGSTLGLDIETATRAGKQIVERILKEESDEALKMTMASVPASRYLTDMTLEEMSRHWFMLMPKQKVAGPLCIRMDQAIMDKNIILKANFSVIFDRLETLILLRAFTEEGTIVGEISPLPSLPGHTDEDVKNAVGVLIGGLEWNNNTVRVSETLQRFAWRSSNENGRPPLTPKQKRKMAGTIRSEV

[12] = molecular target: Glutathione-S-transferase (Schistosoma japonicum, UniProt Q26513); experiment: GST-antibody interaction or FRET quenching – biochemical, TR-FRET, artefact control for Vif-APOBEC3G degradation inhibitor project, dose response (AID 1117362); assay type: functional
Glutathione-S-transferase, sequence (Q26513 whole entry): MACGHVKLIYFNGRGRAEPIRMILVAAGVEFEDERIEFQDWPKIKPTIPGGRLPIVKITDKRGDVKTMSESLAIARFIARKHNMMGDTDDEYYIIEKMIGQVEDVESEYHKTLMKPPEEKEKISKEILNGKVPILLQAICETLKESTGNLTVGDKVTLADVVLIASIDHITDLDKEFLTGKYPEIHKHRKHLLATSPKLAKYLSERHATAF

[13] = molecular target: Voltage-gated inwardly rectifying potassium channel KCNH2 (Homo sapiens, UniProt Q12809); details: Potency;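 further: confirmatory quantitative high-throughput screen measuring inhibition of hERG channel activity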
Cytochrome P450 3A4 = Cytochrome P450 3A4 (Homo sapiens, UniProt P08684); details: Potency;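 further: confirmatory qHTS run detecting inhibitors and substrates of CYP3A4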
Cytochrome P450 3A4, sequence (P08684 whole entry): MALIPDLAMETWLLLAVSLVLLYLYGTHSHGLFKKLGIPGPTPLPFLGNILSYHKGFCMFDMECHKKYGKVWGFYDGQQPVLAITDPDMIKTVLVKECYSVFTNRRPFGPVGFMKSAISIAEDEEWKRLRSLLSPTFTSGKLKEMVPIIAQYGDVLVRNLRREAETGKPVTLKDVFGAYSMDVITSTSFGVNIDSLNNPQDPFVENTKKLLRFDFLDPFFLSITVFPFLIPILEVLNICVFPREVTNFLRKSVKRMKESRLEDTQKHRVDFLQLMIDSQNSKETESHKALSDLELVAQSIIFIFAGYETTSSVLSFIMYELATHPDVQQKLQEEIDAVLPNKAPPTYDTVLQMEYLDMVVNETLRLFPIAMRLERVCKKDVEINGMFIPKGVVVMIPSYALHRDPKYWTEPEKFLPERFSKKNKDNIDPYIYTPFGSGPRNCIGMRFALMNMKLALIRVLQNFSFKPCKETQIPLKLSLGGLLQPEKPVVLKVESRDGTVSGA

[14] = molecular target: Glucose-6-phosphate 1-dehydrogenase (Homo sapiens, UniProt P11413); experiment: inhibition of Homo sapiens G6PD, dose series – biochemical, fluorescence, selectivity assay for P. falciparum G6PD inhibitor project, dose response (AID 504792); assay type: functional
[15] = molecular target: Aryl hydrocarbon receptor (Homo sapiens, UniProt P35869); details: Potency;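 further: confirmatory quantitative high-throughput screen measuring activation of the AhR signaling pathway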
Interleukin-8 [16] = molecular target: T4, Interleukin-8 (Homo sapiens, UniProt P10145); experiment: Dose Response confirmation of uHTS small molecule hits for cystic fibrosis induced NFkb Inhibitors in a TNFa-induced IL8 counterscreen.; assay type: functional; details: read-out: IC50_Mean
T4 sequence (P10145 whole entry): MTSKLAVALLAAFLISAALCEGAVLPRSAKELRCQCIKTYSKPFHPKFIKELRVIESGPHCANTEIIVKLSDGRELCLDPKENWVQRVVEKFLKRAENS

Interleukin-8 [17] = molecular target: T4, Interleukin-8; experiment: Dose Response confirmation of uHTS small molecule hits for cystic fibrosis induced NFkb Inhibitors in a PAF-induced IL8 counterscreen.; assay type: functional; details: read-out: IC50_Mean
[18] = molecular target: T5, Probable nicotinate-nucleotide adenylyltransferase (Staphylococcus aureus (strain N315), UniProt P65502); assay type: functional, Staphylococcus aureus subsp. aureus N315; details: read-out: IC50_Mean;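 on IC50 Mean: confirmatory dose-response retesting of NadD inhibitor hits first found in an ultra-high-throughput screen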
T5 sequence (P65502 whole entry): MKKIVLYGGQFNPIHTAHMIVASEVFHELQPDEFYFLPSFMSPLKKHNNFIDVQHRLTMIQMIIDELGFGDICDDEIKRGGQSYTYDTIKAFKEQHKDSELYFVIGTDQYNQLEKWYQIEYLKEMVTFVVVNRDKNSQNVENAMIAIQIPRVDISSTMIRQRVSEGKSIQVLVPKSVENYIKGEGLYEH

[19] = molecular target: T5, Probable nicotinate-nucleotide adenylyltransferase; assay type: functional, Staphylococcus aureus subsp. aureus N315
[20] = molecular target: T6, Low molecular weight phosphotyrosine protein phosphatase (Homo sapiens, UniProt P24666); assay type: functional; details: read-out: IC50_Mean
T6 sequence (P24666 whole entry): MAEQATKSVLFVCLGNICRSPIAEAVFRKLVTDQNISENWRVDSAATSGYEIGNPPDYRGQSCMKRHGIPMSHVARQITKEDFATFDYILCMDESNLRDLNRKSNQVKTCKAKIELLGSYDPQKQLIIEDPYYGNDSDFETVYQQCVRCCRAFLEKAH

[21] = molecular target: T7, ATP-dependent translocase ABCB1 (Homo sapiens, UniProt P08183); experiment: inhibition of BCRP-mediated JC-1 efflux – Ig-MXP3 cells, flow cytometry, set 2, dose response (AID 504566); assay type: functional; details: read-out: EC50_MICROM_;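 further: flow cytometry median green fluorescence of retained JC-1 dye; potency of efflux pump inhibition measured as rising substrate retention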
T7 sequence (P08183 whole entry): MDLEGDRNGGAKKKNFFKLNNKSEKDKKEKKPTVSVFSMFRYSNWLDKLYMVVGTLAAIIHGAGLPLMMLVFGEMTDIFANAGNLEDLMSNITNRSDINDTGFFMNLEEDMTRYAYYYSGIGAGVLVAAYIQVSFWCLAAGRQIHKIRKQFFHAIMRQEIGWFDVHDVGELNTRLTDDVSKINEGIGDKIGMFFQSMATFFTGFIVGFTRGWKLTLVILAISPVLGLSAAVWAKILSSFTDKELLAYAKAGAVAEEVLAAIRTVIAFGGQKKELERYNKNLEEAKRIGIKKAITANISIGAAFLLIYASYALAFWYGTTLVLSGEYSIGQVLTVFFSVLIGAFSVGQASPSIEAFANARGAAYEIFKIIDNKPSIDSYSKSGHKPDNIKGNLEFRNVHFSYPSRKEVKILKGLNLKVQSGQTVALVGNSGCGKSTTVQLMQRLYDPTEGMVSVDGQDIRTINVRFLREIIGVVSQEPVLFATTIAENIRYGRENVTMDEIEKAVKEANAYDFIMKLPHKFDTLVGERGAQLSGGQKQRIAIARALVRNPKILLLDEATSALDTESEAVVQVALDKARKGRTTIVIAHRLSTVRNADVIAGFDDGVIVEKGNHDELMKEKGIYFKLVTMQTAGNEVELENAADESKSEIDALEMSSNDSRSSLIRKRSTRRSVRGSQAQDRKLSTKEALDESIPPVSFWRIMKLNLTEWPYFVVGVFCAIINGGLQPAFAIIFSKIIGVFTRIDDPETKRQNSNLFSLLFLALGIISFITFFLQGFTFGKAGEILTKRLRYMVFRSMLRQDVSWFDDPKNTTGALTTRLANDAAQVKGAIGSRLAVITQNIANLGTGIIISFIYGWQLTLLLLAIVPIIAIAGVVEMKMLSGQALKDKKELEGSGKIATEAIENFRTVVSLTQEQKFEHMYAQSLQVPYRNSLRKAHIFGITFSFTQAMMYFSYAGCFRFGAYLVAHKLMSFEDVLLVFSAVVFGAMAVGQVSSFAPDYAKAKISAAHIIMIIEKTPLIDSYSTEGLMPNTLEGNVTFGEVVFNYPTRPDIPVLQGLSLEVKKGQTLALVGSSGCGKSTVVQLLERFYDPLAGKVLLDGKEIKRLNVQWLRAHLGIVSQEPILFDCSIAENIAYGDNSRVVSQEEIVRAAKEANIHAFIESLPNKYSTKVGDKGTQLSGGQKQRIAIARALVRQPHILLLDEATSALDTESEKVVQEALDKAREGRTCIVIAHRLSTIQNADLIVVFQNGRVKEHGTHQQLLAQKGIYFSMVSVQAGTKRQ

[22] = molecular target: T7, ATP-dependent translocase ABCB1; experiment: P-gp JC-1 efflux blockade concentration-response – Jurkat-DNR cells, flow cytometry, set 2, dose response (AID 504569); assay type: functional; details: read-out: EC50_MICROM_;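 further: potency of pump inhibitors that raise cellular JC-1 green fluorescence up to the nicardipine level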
[23] = molecular target: Small ubiquitin-related modifier 2 (Homo sapiens, UniProt P61956); experiment: SUMO2 binding disruption by SUMO1 hits – biochemical, FRET, human SUMO2, uHTS hits, selectivity assay for SUMO1 interaction inhibitor project, dose response (AID 624384); assay type: functional; details: read-out: IC50_Mean
Small ubiquitin-related modifier 2, sequence (P61956 whole entry): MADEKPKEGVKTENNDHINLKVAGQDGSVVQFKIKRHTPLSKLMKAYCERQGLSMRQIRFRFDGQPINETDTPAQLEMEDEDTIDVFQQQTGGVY

[24] = molecular target: T8, Small ubiquitin-related modifier 1 (Homo sapiens, UniProt P63165); experiment: SUMO1 protein interaction blockers, potency – biochemical, fluorescence polarization, uHTS hits, dose response (AID 624382); assay type: functional; details: read-out: IC50_Mean
T8 sequence (P63165 whole entry): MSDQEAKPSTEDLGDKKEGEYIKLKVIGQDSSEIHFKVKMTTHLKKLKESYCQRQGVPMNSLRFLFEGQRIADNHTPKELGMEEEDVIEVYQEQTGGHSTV

[25] = molecular target: T8, Small ubiquitin-related modifier 1; experiment: SUMO1 protein-protein binding blockers, potency – biochemical, FRET, dose response (AID 624383); assay type: functional; details: read-out: IC50_Mean

CCOc1ccc(Nc2c3ccccc3nc3ccccc23)cc1
EC50 [1]: > 92.5 µM (inactive) | CC50 (Vero): 6.47 µM (active) | AC50 (INS1): 5.05 µM (active) | EC50 [2]: > 92.5 µM (inactive) | EC50 (Mu-type opioid receptor): 43.8 µM (inactive) | AC50 [3]: 46.9 µM (active) | AC50 [4]: 1.57 µM (active) | AC50 [5]: 7.28 µM (active)

CCc1cc(C(=O)Nc2nc(-c3ccccn3)cs2)sc1C
AC50 [6]: 103 µM (active) | CC50 [7]: 32 µM (active) | IC50 (H9c2): > 79 µM (inactive)

CC(C)Nc1ccc(Nc2ccccc2)cc1
EC50 (Protein RecA): 76.4 µM (active) | CC50 [8]: 26.2 µM (active) | EC50 [9]: > 60 µM (not active) | EC50 [10]: 2.52 µM (active) | AC50 [11]: 127 µM (active) | AC50 (INS1): 6.94 µM (active) | IC50 (Large T antigen): 9.01 µM (active) | IC50 (Nonstructural protein 1): 19.2 µM (active) | IC50 [12]: 58 µM (active) | AC50 [13]: 15.8 µM (inconclusive) | AC50 (Cytochrome P450 3A4): 25.1 µM (inconclusive) | IC50 [14]: > 80 µM (inactive) | AC50 [15]: 44.7 µM (inconclusive)

Cc1ccccc1C(=O)N1CCN(c2ccc(NC(=O)c3cccc(OC(C)C)c3)cc2)CC1
IC50 (Interleukin-8 [16]): > 79 µM (inactive) | IC50 (Interleukin-8 [17]): 39.6 µM (inactive)

Cc1ccc(S(=O)(=O)Nc2ccc(Nc3nccn4c(-c5ccc6ccccc6c5)cnc34)cc2)cc1
IC50 [18]: 16.3 µM (active) | IC50 [19]: 9.78 µM (active)

C[C@@H](NC(=O)c1ncn2c1c(O)nc1ccc(Br)cc12)c1ccccc1
IC50 [20]: 25 µM (inactive)

Cc1nc2ncnn2c(N2CCN(C(=O)c3ccco3)CC2)c1Cc1ccccc1
EC50 [21]: 2.14 µM (active) | EC50 [22]: 4.97 µM (active)

N#C/C(=C(\O)Nc1cccc(Cl)c1)c1nc2ccccc2[nH]1
IC50 [23]: > 66 µM (inactive) | IC50 [24]: 66 µM (inactive) | IC50 [25]: 52.6 µM (inactive)
